Legend:
Type in all cases: cell-based
SMARCA4 = molecular target: T1, SMARCA4 (Homo sapiens, UniProt P51532); assay: SMARCA4 Western blot degradation in MV4-11 cells; details: for Dmax: MV4-11, MV4-11 cells, read-out: SMARCA4 MSD MV411 degradation 24 h: average Dmax %; for Dmax / DC50: 24 h; for DC50 / SMARCA4 MSD MV411 degradation 24 h: average Dmax %: MV4-11 cells; for DC50: read-out: SMARCA4 MSD MV411 degradation 24 h: Mean external-Abs DC50
T1 construct: SMARCA2/SMARCA4 protein degradation selectivity in MV4-11 cells; endogenous in cells; host or cells: MV4-11
How it was run: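 Fluorescent LI-COR imaging of Western blots quantified SMARCA2 and SMARCA4 protein remaining in MV4-11 cells after 24 h of compound treatment. β-actin was the loading control, and DC50, Dmax and SMARCA2/4 selectivity are given as letter-coded ranges.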

SMARCA2 [1] = molecular target: T2, SMARCA2 (Homo sapiens, UniProt P51531); assay: MSD SMARCA2 degradation in A549 cell line; details: for Dmax: A549, A549 cells; for Dmax / DC50: 24 h; for DC50 / SMARCA2 MSD A549 degradation 24 h: Average Dmax %: A549 cells; for DC50: read-out: SMARCA2 MSD A549 degradation 24 h: Average external-Abs DC50
How it was run: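 SMARCA2 protein remaining after 24 h exposure of A549 cells (top concentration 1000 nM, 3-fold dilutions) was measured by MSD electrochemiluminescence immunoassay of cell lysates. Results are given as binned DC50 and maximal degradation (Dmax) codes.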

SMARCA2 [2] = molecular target: T2, SMARCA2; assay: SMARCA2 Western blot degradation in MV4-11 cells; set-up: SMARCA2/SMARCA4 protein degradation selectivity in MV4-11 cells; endogenous in cells; host or cells: MV4-11; details: for Dmax: MV4-11, MV4-11 cells, read-out: SMARCA2 MSD MV411 degradation 24 h: average Dmax %; for Dmax / DC50 / SMARCA2 MSD MV411 degradation 24 h: average Dmax %: 24 h; for DC50 / Selectivity in MV411 / SMARCA2 MSD MV411 degradation 24 h: average Dmax %: MV4-11 cells; for DC50: read-out: SMARCA2 MSD MV411 degradation 24 h: Mean external-Abs DC50; for Selectivity in MV411: SMARCA2/4 selectivity

T1 sequence (P51532 whole entry): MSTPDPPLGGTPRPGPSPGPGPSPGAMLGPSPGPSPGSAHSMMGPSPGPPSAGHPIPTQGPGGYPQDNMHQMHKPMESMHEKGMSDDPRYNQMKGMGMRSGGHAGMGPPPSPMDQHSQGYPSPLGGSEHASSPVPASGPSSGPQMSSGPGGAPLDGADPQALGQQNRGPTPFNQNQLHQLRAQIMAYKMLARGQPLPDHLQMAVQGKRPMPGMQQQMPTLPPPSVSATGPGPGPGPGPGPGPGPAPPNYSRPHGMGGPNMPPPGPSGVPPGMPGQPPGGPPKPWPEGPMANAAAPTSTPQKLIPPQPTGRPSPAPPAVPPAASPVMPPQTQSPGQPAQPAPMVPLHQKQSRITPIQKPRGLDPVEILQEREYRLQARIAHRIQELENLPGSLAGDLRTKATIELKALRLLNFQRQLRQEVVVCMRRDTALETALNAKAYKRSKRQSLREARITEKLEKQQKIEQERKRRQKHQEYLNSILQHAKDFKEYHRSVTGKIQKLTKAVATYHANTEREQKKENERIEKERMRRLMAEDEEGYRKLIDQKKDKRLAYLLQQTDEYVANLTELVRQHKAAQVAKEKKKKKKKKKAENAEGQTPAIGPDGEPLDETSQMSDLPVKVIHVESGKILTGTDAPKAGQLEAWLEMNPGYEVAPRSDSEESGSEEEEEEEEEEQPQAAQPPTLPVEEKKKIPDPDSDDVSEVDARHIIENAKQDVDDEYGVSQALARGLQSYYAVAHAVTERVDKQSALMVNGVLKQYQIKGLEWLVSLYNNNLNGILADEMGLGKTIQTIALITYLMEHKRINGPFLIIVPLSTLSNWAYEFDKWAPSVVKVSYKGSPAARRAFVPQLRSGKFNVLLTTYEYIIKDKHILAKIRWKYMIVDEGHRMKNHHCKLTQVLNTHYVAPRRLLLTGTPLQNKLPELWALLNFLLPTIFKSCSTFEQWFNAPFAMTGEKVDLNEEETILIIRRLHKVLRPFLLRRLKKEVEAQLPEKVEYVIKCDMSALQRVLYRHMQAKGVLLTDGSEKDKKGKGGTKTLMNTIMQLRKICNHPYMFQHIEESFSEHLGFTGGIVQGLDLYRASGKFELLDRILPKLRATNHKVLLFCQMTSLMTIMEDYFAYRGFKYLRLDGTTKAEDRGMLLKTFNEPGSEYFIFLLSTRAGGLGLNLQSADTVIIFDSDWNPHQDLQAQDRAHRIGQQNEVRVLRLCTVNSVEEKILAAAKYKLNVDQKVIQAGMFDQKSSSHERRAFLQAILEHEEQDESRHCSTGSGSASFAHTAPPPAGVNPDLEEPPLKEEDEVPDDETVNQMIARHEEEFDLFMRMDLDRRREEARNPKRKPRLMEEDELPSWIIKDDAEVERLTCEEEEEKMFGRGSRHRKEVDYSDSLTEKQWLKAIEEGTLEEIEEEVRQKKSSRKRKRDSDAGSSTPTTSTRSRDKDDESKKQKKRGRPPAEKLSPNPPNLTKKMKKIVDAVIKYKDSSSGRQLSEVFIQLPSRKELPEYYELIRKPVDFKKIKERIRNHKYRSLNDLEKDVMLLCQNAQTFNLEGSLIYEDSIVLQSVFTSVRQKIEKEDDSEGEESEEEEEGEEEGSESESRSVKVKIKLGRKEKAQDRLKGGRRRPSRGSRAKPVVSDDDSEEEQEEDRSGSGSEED
T2 sequence (P51531 whole entry): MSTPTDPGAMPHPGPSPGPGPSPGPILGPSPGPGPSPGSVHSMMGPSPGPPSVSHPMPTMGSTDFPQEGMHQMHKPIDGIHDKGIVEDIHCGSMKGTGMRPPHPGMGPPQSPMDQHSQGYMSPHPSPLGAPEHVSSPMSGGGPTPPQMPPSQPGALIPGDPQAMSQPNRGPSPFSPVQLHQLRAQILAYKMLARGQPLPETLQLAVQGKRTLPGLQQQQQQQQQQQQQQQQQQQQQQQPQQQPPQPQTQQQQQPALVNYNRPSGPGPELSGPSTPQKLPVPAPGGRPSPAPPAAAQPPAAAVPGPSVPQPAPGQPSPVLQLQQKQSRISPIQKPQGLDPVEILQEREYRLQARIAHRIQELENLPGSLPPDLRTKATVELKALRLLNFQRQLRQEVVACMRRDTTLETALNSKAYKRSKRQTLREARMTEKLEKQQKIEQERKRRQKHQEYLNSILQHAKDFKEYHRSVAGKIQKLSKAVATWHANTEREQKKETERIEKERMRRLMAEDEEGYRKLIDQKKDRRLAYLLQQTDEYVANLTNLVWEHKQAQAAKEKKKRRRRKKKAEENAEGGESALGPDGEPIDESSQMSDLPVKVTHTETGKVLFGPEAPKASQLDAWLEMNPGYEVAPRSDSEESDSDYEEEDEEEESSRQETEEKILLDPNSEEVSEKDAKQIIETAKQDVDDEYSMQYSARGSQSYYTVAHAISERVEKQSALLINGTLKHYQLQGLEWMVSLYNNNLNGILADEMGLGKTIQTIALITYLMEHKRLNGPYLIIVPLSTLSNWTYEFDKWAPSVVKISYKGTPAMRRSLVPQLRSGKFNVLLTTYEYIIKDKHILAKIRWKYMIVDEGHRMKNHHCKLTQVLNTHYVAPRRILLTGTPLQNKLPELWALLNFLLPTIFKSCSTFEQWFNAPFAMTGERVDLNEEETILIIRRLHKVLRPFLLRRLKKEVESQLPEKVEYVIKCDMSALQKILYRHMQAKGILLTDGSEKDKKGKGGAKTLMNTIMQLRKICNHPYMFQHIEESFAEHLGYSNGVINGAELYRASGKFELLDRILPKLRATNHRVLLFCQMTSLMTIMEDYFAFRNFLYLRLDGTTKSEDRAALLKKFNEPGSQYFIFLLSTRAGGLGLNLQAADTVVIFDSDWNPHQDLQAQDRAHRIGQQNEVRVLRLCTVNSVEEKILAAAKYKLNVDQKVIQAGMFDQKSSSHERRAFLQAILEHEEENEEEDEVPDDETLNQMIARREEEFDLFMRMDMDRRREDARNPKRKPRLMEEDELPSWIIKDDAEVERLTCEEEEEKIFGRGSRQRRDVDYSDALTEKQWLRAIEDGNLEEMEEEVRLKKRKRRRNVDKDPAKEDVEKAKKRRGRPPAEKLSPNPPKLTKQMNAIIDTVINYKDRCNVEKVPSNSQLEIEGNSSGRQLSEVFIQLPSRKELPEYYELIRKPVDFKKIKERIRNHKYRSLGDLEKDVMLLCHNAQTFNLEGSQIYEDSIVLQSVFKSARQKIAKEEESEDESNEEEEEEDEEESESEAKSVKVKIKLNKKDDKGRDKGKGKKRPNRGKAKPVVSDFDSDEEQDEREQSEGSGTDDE

SMILES | Dmax (SMARCA4) [%] | DC50 (SMARCA4) [nM] | Dmax (SMARCA2 [1]) [%] | DC50 (SMARCA2 [1]) [nM] | Dmax (SMARCA2 [2]) [%] | DC50 (SMARCA2 [2]) [nM] | Selectivity in MV411 (SMARCA2 [2]) | SMARCA4 MSD MV411 degradation 24 h: average Dmax % (SMARCA4) | SMARCA2 MSD A549 degradation 24 h: Average Dmax % (SMARCA2 [1]) | SMARCA2 MSD MV411 degradation 24 h: average Dmax % (SMARCA2 [2])
C#Cc1ccc([C@H](C)NC(=O)[C@@H]2C[C@@H](O)CN2C(=O)[C@@H](NC(=O)[C@H]2CC3(C2)C[C@H](N2CCC(N4CCC(N5CCN6c7cc(-c8ccccc8O)nnc7NC[C@H]6C5)CC4)CC2)C3)C(C)(C)C)cc1 (single isomer, unassigned) [I-226] |  | > 100 |  | > 100 |  | 10 to 100 | B (B (>100-500 fold)) | D (D (<50% degradation)) | A (A (>90% degradation)) | B (B (>70-90% degradation))
C#Cc1ccc(CNC(=O)[C@@H]2C[C@@H](O)CN2C(=O)[C@@H](NC(=O)[C@H]2CC3(C2)C[C@H](N2CCC(N4CCC(N5CCN6c7cc(-c8ccccc8O)nnc7NC[C@H]6C5)CC4)CC2)C3)C(C)(C)C)c(Cl)c1 (single isomer, unassigned) [I-229] | 50 to 70 | > 100 | > 90 | > 100 | 70 to 90 | 10 to 100 | B (B (>100-500 fold)) |  |  | 
C#Cc1ccc(CNC(=O)[C@@H]2C[C@@H](O)CN2C(=O)[C@@H](NC(=O)[C@H]2CC3(C2)C[C@H](N2CCC(N4CCC(N5CCN6c7cc(-c8ccccc8O)nnc7NC[C@H]6C5)CC4)CC2)C3)C(C)(C)C)c(Cl)c1 (single isomer, unassigned) [I-230] |  | > 100 |  | 10 to 50 |  | 1 to 10 | B (B (>100-500 fold)) | C (C (50-70% degradation)) | A (A (>90% degradation)) | B (B (>70-90% degradation))
C#Cc1ccc(CNC(=O)[C@@H]2C[C@@H](O)CN2C(=O)[C@@H](NC(=O)[C@H]2CC3(C2)C[C@H](N2CCC(N4CCC(N5CCN6c7cc(-c8ccccc8O)nnc7NC[C@H]6C5)CC4)CC2)C3)C(C)(C)C)c(OC)c1 (single isomer, unassigned) [I-231] | 50 to 70 | > 100 | > 90 | 50 to 100 | > 90 | 1 to 10 | C (C (10-100 fold)) |  |  | 
C#Cc1ccc([C@H](C)NC(=O)[C@@H]2C[C@@H](O)CN2C(=O)[C@@H](NC(=O)[C@H]2CCC3(CC2)C[C@H](N2CCN(c4cnc(N5CCN6c7cc(-c8ccccc8O)nnc7NC[C@H]6C5)nc4)CC2)C3)C(C)(C)C)cc1 (single isomer, unassigned) [I-233] | 50 to 70 | > 100 | > 90 | 10 to 50 | 70 to 90 | 1 to 10 | C (C (10-100 fold)) |  |  | 
C#Cc1ccc([C@H](C)NC(=O)[C@@H]2C[C@@H](O)CN2C(=O)[C@@H](NC(=O)[C@H]2CCC3(CC2)C[C@H](N2CCN(c4cnc(N5CCN6c7cc(-c8ccccc8O)nnc7NC[C@H]6C5)nc4)CC2)C3)C(C)(C)C)cc1 (single isomer, unassigned) [I-234] |  | > 100 |  | 50 to 100 |  | 10 to 100 | C (C (10-100 fold)) | C (C (50-70% degradation)) | A (A (>90% degradation)) | B (B (>70-90% degradation))
C#Cc1ccc2c(c1)OCC[C@@H]2NC(=O)[C@@H]1C[C@@H](O)CN1C(=O)[C@@H](NC(=O)N1CC2(CC(N3CCC(c4cnc(N5CCc6[nH]c7nnc(-c8ccccc8O)cc7c6[C@H]5C)nc4)CC3)C2)C1)C(C)(C)C (single isomer, unassigned) [I-235] | < 50 | > 100 | 50 to 70 | > 100 | < 50 | > 100 | D (D (<10 fold)) |  |  | 
C#Cc1ccc2c(c1)OCC[C@H]2NC(=O)[C@@H]1C[C@@H](O)CN1C(=O)[C@@H](NC(=O)N1CC2(CC(N3CCC(c4cnc(N5CCc6[nH]c7nnc(-c8ccccc8O)cc7c6[C@H]5C)nc4)CC3)C2)C1)C(C)(C)C (single isomer, unassigned) [I-236] | < 50 | > 100 | 70 to 90 | > 100 | 50 to 70 | > 100 | D (D (<10 fold)) |  |  | 
C#Cc1ccc(CNC(=O)[C@@H]2C[C@@H](O)CN2C(=O)[C@@H](NC(=O)[C@H]2CCC3(CC2)C[C@H](N2CCC(N4CC5(CC(N6CCN7c8cc(-c9ccccc9O)nnc8NC[C@H]7C6)C5)C4)CC2)C3)C(C)(C)C)cc1 (single isomer, unassigned) [I-237] |  | > 100 |  | 50 to 100 |  | 1 to 10 | B (B (>100-500 fold)) | D (D (<50% degradation)) | A (A (>90% degradation)) | B (B (>70-90% degradation))

Now from value to molecule:

Dmax (SMARCA4) [%] | DC50 (SMARCA4) [nM] | Dmax (SMARCA2 [1]) [%] | DC50 (SMARCA2 [1]) [nM] | Dmax (SMARCA2 [2]) [%] | DC50 (SMARCA2 [2]) [nM] | Selectivity in MV411 (SMARCA2 [2]) | SMARCA4 MSD MV411 degradation 24 h: average Dmax % (SMARCA4) | SMARCA2 MSD A549 degradation 24 h: Average Dmax % (SMARCA2 [1]) | SMARCA2 MSD MV411 degradation 24 h: average Dmax % (SMARCA2 [2]) | SMILES
< 50 | > 100 | > 90 | 50 to 100 | 70 to 90 | 1 to 10 | A (A (>500 fold)) |  |  |  | C#Cc1ccc(C2(NC(=O)[C@@H]3C[C@@H](O)CN3C(=O)[C@@H](NC(=O)[C@H]3CC4(C3)C[C@H](N3CCC(N5CCC(N6CCN7c8cc(-c9ccccc9O)nnc8NC[C@H]7C6)CC5)CC3)C4)C(C)(C)C)CC2)cc1 (single isomer, unassigned) [I-211]
< 50 | > 100 | > 90 | > 100 | 70 to 90 | 1 to 10 | B (B (>100-500 fold)) |  |  |  | C#Cc1ccc([C@H](C)NC(=O)[C@@H]2C[C@@H](O)CN2C(=O)[C@@H](NC(=O)[C@H]2CC3(C2)C[C@H](N2CCC(N4CCC(N5CCN6c7cc(-c8ccccc8O)nnc7NC[C@H]6C5)CC4)CC2)C3)C(C)(C)C)cc1 (single isomer, unassigned) [I-213]
< 50 | > 100 | > 90 | > 100 | 70 to 90 | 10 to 100 | B (B (>100-500 fold)) |  |  |  | C#Cc1ccc(CNC(=O)[C@@H]2C[C@@H](O)CN2C(=O)[C@@H](NC(=O)[C@H]2CCC3(CC2)C[C@H](N2CCC(N4CC5(CC(N6CCN7c8cc(-c9ccccc9O)nnc8NC[C@H]7C6)C5)C4)CC2)C3)C(C)(C)C)c(Cl)c1 (single isomer, unassigned) [I-220]
< 50 | > 100 | > 90 | > 100 | 50 to 70 | 10 to 100 | C (C (10-100 fold)) |  |  |  | C#Cc1ccc(CNC(=O)[C@@H]2C[C@@H](O)CN2C(=O)[C@@H](NC(=O)[C@H]2CCC3(CC2)C[C@H](N2CCC(N4CCC(N5CCN6c7cc(-c8ccccc8O)nnc7NC[C@H]6C5)CC4)CC2)C3)C(C)(C)C)c(Cl)c1 (single isomer, unassigned) [I-221]
50 to 70 | > 100 | > 90 | 50 to 100 | 70 to 90 | 1 to 10 | C (C (10-100 fold)) |  |  |  | C#Cc1ccc(CNC(=O)[C@@H]2C[C@@H](O)CN2C(=O)[C@@H](NC(=O)[C@H]2CCC3(CC2)C[C@H](N2CCC(N4CC5(CC(N6CCN7c8cc(-c9ccccc9O)nnc8NC[C@H]7C6)C5)C4)CC2)C3)C(C)(C)C)cc1 (single isomer, unassigned) [I-223]
 | > 100 |  | > 100 |  | 1 to 10 | B (B (>100-500 fold)) | D (D (<50% degradation)) | A (A (>90% degradation)) | B (B (>70-90% degradation)) | C#Cc1ccc(C2(NC(=O)[C@@H]3C[C@@H](O)CN3C(=O)[C@@H](NC(=O)[C@H]3CC4(C3)C[C@H](N3CCC(N5CCC(N6CCN7c8cc(-c9ccccc9O)nnc8NC[C@H]7C6)CC5)CC3)C4)C(C)(C)C)CC2)cc1 (single isomer, unassigned) [I-225]
 | 10 to 100 |  | 10 to 50 |  | 1 to 10 | C (C (10-100 fold)) | B (B (>70-90% degradation)) | A (A (>90% degradation)) | A (A (>90% degradation)) | C#Cc1ccc(CNC(=O)[C@@H]2C[C@@H](O)CN2C(=O)[C@@H](NC(=O)[C@H]2CC3(C2)C[C@H](N2CCC(N4CCC(N5CCN6c7cc(-c8ccccc8O)nnc7NC[C@H]6C5)CC4)CC2)C3)C(C)(C)C)c(OC)c1 (single isomer, unassigned) [I-232]
